Results: patent publication US12409167B2, “Pharmaceutical combination comprising a selective S1P1 receptor agonist” (Vanda Pharmaceuticals Inc., priority 2014, dated 2025)
Where a name gives a salt, the structure may show the parent alone.

What was measured:
[1] = test system: experimental autoimmune encephalomyelitis (EAE); assay: rat monophasic EAE model, DMF pilot experiment; format: in vivo, Female Lewis rats; settings: first pilot experiment, dose 120 mg/kg q.d. from day 0
Description: The efficacy of dimethyl fumarate (DMF) in acute monophasic models of experimental autoimmune encephalomyelitis (EAE) can be determined in a pilot experiment.
Female Lewis rats are immunized with an emulsion of myelin basic protein (MBP) from Guinea pig in complete Freund's adjuvant. A total of 200 micrograms of MBP is injected per rat at two sites subcutaneously (right paw and base of tail). Within 10 days the rats develop signs of paralysis which will be graded on a scale from 0 to 15 assessing the tail and each limb individually according to the method originally described by Weaver A. et al., FASEB J., 2005, 19(12): 1668-1670. The disease takes an acute monophasic course and is self-remitting. Usually by day 21 clinical scores reach values below 3.0.
Groups of 10 to 14 rats are dosed starting at the day of disease induction (day 0) with different doses of DMF in the range between 40 and 160 mg/kg once daily (q.d.). Clinical scores are assessed on a daily basis and disease development is compared between vehicle-treated rats and rats receiving DMF (vehicle: 0.5% Methylcellulose/0.5% Tween® 80). In parallel, body weights of the rats are monitored on a daily basis to follow general health. The experiment is terminated at day 21 whereupon hematology can be measured.
Plasma samples can be taken for compound concentration determination and for the measurement of protein markers. […]

[2] = test system: experimental autoimmune encephalomyelitis (EAE); assay: combination efficacy experiment in rat EAE model; format: in vivo, Female Lewis rats; settings: FIG. 1, DMF 120 mg/kg q.d., ponesimod 100 mg/kg q.d., from day 0; for effect on clinical course of EAE (clinical score): n=11/group
Description: FIG. 1: Efficacy of ponesimod, DMF or its combination in rat EAE (n=11/group). Clinical scoring was performed daily by an independent examiner in a blinded manner. SEM=standard error of the mean. Female Lewis rats are immunized with an emulsion of myelin basic protein (MBP) from Guinea pig in complete Freund's adjuvant. A total of 200 micrograms of MBP is injected per rat at two sites subcutaneously (right paw and base of tail). Within 10 days the rats develop signs of paralysis which will be graded on a scale from 0 to 15 assessing the tail and each limb individually according to the method originally described by Weaver A. et al., FASEB J., 2005, 19(12): 1668-1670. The disease takes an acute monophasic course and is self-remitting. Usually by day 21 clinical scores reach values below 3.0. Groups of 10 to 14 rats are dosed starting at the day of disease induction (day 0) with different doses of DMF in the range between 40 and 160 mg/kg once daily (q.d.). Clinical scores are assessed on a daily basis and disease development is compared between vehicle-treated rats and rats receiving DMF (vehicle: 0.5% Methylcellulose/0.5% Tween® 80). In parallel, body weights of the rats are monitored on a daily basis to follow general health. The experiment is terminated at day 21 whereupon hematology can be measured. The combination efficacy experiment is performed in the same rat EAE model as described for the first pilot experiment. It consists of four treatment groups: • 1. Vehicle (0.5% Methylcellulose/0.5% Tween® 80) q.d., from day 0 • 2. DMF (120 mg/kg) q.d., from day 0 • 3. Ponesimod (100 mg/kg) q.d., from day 0 • 4. DMF (120 mg/kg) q.d., from day 0+ponesimod (100 mg/kg) q.d., from day 0 In life and termination endpoints are the same as described for the first pilot experiment.

[3] = test system: peripheral blood lymphocytes; settings: oral administration; cited from earlier work
[4] = test system: moderate to severe chronic plaque psoriasis; relapsing-remitting multiple sclerosis; settings: patients with moderate to severe chronic plaque psoriasis and with relapsing-remitting multiple sclerosis; cited from earlier work
[5] = test system: lymphocyte count in peripheral blood; assay: ponesimod pilot experiment, lymphocyte count in peripheral blood; format: in vivo; settings: second pilot experiment, healthy female Lewis rats, dose 100 mg/kg
Description: In parallel to the measurement of efficacy of DMF in the EAE model, a second pilot experiment is required. Healthy female Lewis rats will receive ponesimod at different doses in the range from 0.3 to 100 mg/kg. The goal is to assess the dose-effect relationship of ponesimod on lymphocyte count in peripheral blood in this strain of rat.

Row | Structure (SMILES) | efficacy on EAE scores [1] | effect on clinical score from day 16 onwards ([2]; from day 16 onwards) | effect on clinical course of EAE (clinical score) [2] | number of peripheral blood lymphocytes [3] | clinical benefit in phase II trials [4] | efficacy on lymphocyte count reduction [5]
1 | COC(=O)/C=C/C(=O)OC [DMF, dimethyl fumarate] | partial efficacy between none and strongest efficacy | no effect on clinical score anymore | moderate effect during the ascending phase of the disease |  |  | 
2 | CCC/N=C1\S/C(=C\c2ccc(OC[C@H](O)CO)c(Cl)c2)C(=O)N1c1ccccc1C [ponesimod, (R)-5-[3-chloro-4-(2,3-dihydroxy-propoxy)-benz[Z]ylidene]-2-([Z]-propylimino)-3-o-tolyl-thiazolidin-4-one] |  |  | marked and statistically significant effect | consistent, sustained, and dose-dependent reduction | has shown clinical benefit | full efficacy on lymphocyte count reduction
